In patent US12281329B2, “Compositions and methods for immune cell modulation in adoptive immunotherapies” (Fate Therapeutics, Inc., priority 2016, dated 2025):
Structures can show the parent of a compound that is named as a salt.

Assays:
Nalm6 cells = assay: NK cell cytotoxicity assay, Nalm6 target cells; format: cell-based, human; details: 1 μM STING agonist added to 7 day 10 ng/mL IL-15 + 5 μM CHIR99021 culture; 4 hours
Method: (§1) NK Cell Cytotoxicity Assay: Cytotoxicity was determined using a flow cytometry based method based on a previously published method (Kim, et al. J Immunol Methods. 2007 Aug. 31; 325(1-2): 51-66). NK cells were co-cultured with e450-proliferation dye-labelled targets for 4 hours. CellEvent™ Caspase-3/7 Green Flow Cytometry Assay Kit (Lifer Technologies) was used to assay for cell death among target cells, and samples were read on a BD LSRFortessa cytometer. Killing of SKOV-3 targets was quantified using the Incucyte Zoom instrument. SKOV-3 cells were transiently transduced with NucLight-Red BacMam reagent (Essen Biosciences) and co-cultured with the indicated NK cell populations for 74 hours, with images taken on two hour intervals. Caspase 3/7 activity was monitored to indicate target cells undergoing apoptosis using the CellEvent™ Caspase-3/7 Green Detection Reagent. The number of target cells was normalized to SKOV-3 cells cultured alone, and targets undergoing apoptosis were quantified based on caspase 3/7 activity.
(§2) The ability of STING agonist to enhance cytotoxicity of GSK3i multiday modulated NK cells was assessed using in vitro killing assays. […]

K562 cells = assay: NK cell cytotoxicity assay, K562 target cells; format: cell-based; details: 4 hours
Method: as §1
The ability of GSK3 inhibition to enhance cytotoxicity of NK cells isolated directly from donors was assessed using in vitro killing assays. […] depleted PBMC population was treated overnight with 10 ng/mL IL-15 only (primed), or a 7 day culture combination of 10 ng/mL IL-15 and 5 μM CHIR99021. The target cells for the killing assays included K562 cells, CD20+ Raji cells, HER2+ SKOV3 cells and HER2+A549 cells. The E:T (Effector:Target) ratio applied to each assay ranged from 0.1, 0.5, 1, 5 to 10. After the target cells were incubated with the differently treated NK cells for 4 hours, the respective percentage of specific killing (target cell lysis) was calculated. […] Raji cells are less prone to NK mediated cytotoxicity.
as §2

KG-1 cells = assay: NK cell cytotoxicity assay, KG-1 target cells; format: cell-based, human; details: 1 μM STING agonist added to 7 day 10 ng/mL IL-15 + 5 μM CHIR99021 culture; 4 hours
Method: as §1, §2

NK cells = assay: 7 day NK culture with IL15, GSK3i and/or STING agonist: phenotype by flow cytometry; format: cell-based, human
Method: CD3/CD19 depleted PBMC were cultured for 7 days in the presence of 10 ng/ml IL15 and (1) DMSO (vehicle); (2) […] GSK3i (CHIR99021); (3) 1 μM STING agonist (ML RR-S2 CDA); or (4) […] GSK3i+1 μM STING agonist. On day 7, NK cell function and phenotype was assessed by intracellular cytokine staining, cytotoxicity assays, and flow cytometry. […] The frequency of CD107a+ NK cells after incubation with K562 cells was increased for cells cultured for 7 days with IL-15+GSK3i+STING agonist compared to cells cultured with IL-15+GSK3i only (FIG. 16C). Increased cell surface CD107a expression is associated with enhanced degranulation and cytotoxic potential of NK cells in the presence of STING agonist in combination with GSK3i.
Natural Killer (NK) cells recognize and destroy tumors and virus-infected cells in an antibody-independent manner. The regulation of NK cells is mediated by activating and inhibiting receptors on the NK cell surface. One important family of activating receptors is the natural cytotoxicity receptors (NCRs) which include NKp30, NKp44 and NKp46. The NCRs initiate tumor targeting by recognition of their specific ligands on cancer cells.

T cells = assay: In vitro T cell culture compound screen, flow cytometry for CCR7+CD62L+ cells; format: cell-based, human; details: for CD8 Hit / CD4 Hit: 10 μM, about 6 days, anti-CD3/anti-CD28 beads, viability and cell number Z-score > −1; for CD8 Hit: hit: Z-score > +2 for percent or relative number CCR7+CD62L+ in viable CD8+; for CD4 Hit: hit: Z-score > +2 for percent or relative number CCR7+CD62L+ in viable CD4+
Text: In Vitro T Cell Culture. Fresh leukopaks (AllCells, Alameda, CA) were obtained from healthy donors, from which T cells were negatively selected using the EasySep Human T cell Enrichment Kit (Stem Cell Technologies, Vancouver, Canada). The freshly isolated T cells were aliquoted and cryopreserved. On the day the screens were initiated, T cells were thawed and washed into X-Vivo 15 with 5% human AB serum, IL-2, pen/strep, and additional supplements. Cells were dispensed into flat-bottom 384-well plates at 5×10^5 cells/ml with anti-CD3/Anti-CD28 dynabeads (ThermoFisher, Waltham, MA) at a 3:1 bead-to-cell ratio. Individual compounds were added at a final concentration of 10 μM to each well from column 3 to column 22 of each plate. Positive and negative controls were added to additional wells. Cells were incubated for about 6 days at 37 degrees with 5% CO2.
Flow Cytometry. On Day 6 of culture, cells were stained with a fixable viability marker and fluorophore-conjugated antibodies: CD3, CD4, CD8, CD45RA, CD45RO, CD62L, CCR7, CD27, and CD122 (BD Biosciences, San Jose, CA; and BioLegend, San Diego, CA). Fluorescent absolute counting beads (Spherotech, Lake Forest, IL) were added just prior to acquisition. Data acquisition was performed on a BD Fortessa X-20 (BD Biosciences) and data were analyzed using Treestar software (FlowJo, Ashland, OR) and Spotfire (Tibco, Boston, MA).
These cells are characterized by expression of CCR7 and CD62L. Therefore, cells co-expressing both of these identifying markers were evaluated. Within the viable CD4+ population and viable CD8+ population, the percent of cells co-expressing CCR7 and CD62L was determined. The expression of either CD62L or CCR7 on T cells, as indicative of the desired T cell subsets, have been described as having favorable functional characteristics for CAR-T cell therapy, and potentially other adoptive T cell therapies.
The number of events in each of these gates relative to the number of absolute counting beads in each sample was calculated, defining a relative measure of the absolute number of naïve, stem cell memory, or central memory T cells within the CD4+ and/or CD8+ populations. A z-Score relative to the screened compound samples within each 384-well plate was calculated for each of these four values: 1) percent CCR7+CD62L+ in CD4+, 2) percent CCR7+CD62L+ in CD8+, 3) absolute relative number of CCR7+CD62L+ in CD4+, and 4) absolute relative number of CCR7+CD62L+ in CD8+(FIGS. 1A and 1B). Z-scores were also calculated for the percent viability of all cells within each sample and the relative absolute number of cells within each sample. A “Z-Score” is a statistical measurement of a score's relationship to the mean in a group of scores. AZ-score of 0 means the score is the same as the mean. AZ-score can also be positive or negative, indicating whether it is above or below the mean and by how many standard deviations.

CD20+ Raji cells = assay: NK cell cytotoxicity assay, Raji target cells; format: cell-based, human; details: 4 hours; NK cells overnight IL-15 only or 7 days IL15 + GSK3i
Method: as §1
The ability of GSK3 inhibition to enhance cytotoxicity of NK cells isolated directly from donors was assessed using in vitro killing assays. […] After the target cells were incubated with the differently treated NK cells for 4 hours, the respective percentage of specific killing (target cell lysis) was calculated. […]

[1] = at least in viable CD8+ population
[2] = in both viable CD4+ population and viable CD8+ population

Row | Compound | CD8 Hit (T cells) | number or ratio of cells co-expressing CCR7 and CD62L (T cells; [1]) | CD4 Hit (T cells) | also measured
1 | Nc1ncnc2c1ncn2[C@@H]1O[C@@H]2COP(O)(=S)O[C@@H]3C(O)[C@@H](COP(O)(=S)O[C@H]2[C@H]1O)O[C@H]3n1cnc2c(N)ncnc21 (some centres unmarked) [ML RR-S2 CDA] | – | – | – | cytotoxicity (specific killing) against Nalm6 cells (Nalm6 cells): enhanced; cytotoxicity (specific killing) against K562 cells (K562 cells; 1 μM STING agonist added to 7 day 10 ng/mL IL-15 + 5 μM CHIR99021 culture): enhanced; cytotoxicity (specific killing) against KG-1 cells (KG-1 cells): enhanced; effect on adaptive NK phenotype and total NK number (NK cells; 7 days, 10 ng/ml IL15, 1 μM STING agonist): limited effect; total CD57+NK number (NK cells; FIG. 15A): limited effect; CD57+NKG2C+NK phenotype (NK cells; FIG. 15B): limited effect
2 | C/C=C(/C)C(=O)O[C@H]1C(C)=C2[C@H]([C@@H]1OC(=O)CCCCCCC)[C@@](C)(OC(C)=O)C[C@H](OC(=O)CCC)[C@@]1(O)[C@H]2OC(=O)[C@@]1(C)O [Thapsigargin] | CD8 | increased | – | –
3 | O=C(O)Cc1cc(I)c(Oc2ccc(O)c(I)c2)c(I)c1 [Tiratricol] | CD8 | – | CD4 | number or ratio of cells co-expressing CCR7 and CD62L (T cells; [2]): increased
4 | NC1CCN(c2nc3c(cc2F)c(=O)c(C(=O)O)cn3-c2ccc(F)cc2F)C1 (centres unmarked) [Tosufloxacin hydrochloride] | – | increased | CD4 | –
5 | N#CC(=C(/N)Sc1ccccc1N)/C(C#N)=C(\N)Sc1ccccc1N [U0126] | – | increased | CD4 | –
6 | Diethylenetriaminepentaacetic acid, penta sodium | CD8 | – | CD4 | number or ratio of cells co-expressing CCR7 and CD62L (T cells; [2]): increased
7 | IL15: recombinant human IL-15, cytokine used alone as comparator culture (10 ng/mL) | – | – | – | E:T50, Raji cells (CD20+ Raji cells): ~100; E:T50 (E:T ratio when there is 50% of target cell lysis), K562 killing assay (K562 cells; NK cells overnight 10 ng/mL IL-15 only or 7 day IL-15 + 5 μM CHIR99021): about 10
